Assay results taken from patent US11234960B2, “Compositions and methods for improving mitochondrial function and treating neurodegenerative diseases and cognitive disorders” (Amazentis SA, priority 2010, dated 2022).

How the values were obtained:
Format in all cases: in vivo
[1] = test system: maternally separated mice; experiment: Contextual fear conditioning in early-life stress mice; conditions: early-life stressed mice
Procedure: (§1) At postnatal day 1, pups were culled to have 6 pups per mother. From postnatal day 1 to 14, unpredictable maternal separation (MS) of a period of 3 hours daily was carried out. Maternal separation was performed at random times (from 8 am to 2 pm) to avoid the habituation of the mother to the procedure. The protocol consisted of removing pups from their mother to another cage at room temperature for a 3 hour period, after which the pups were returned to their original nest. These groups are denoted as early-life stress in the figures. A control group of dam/pups was left undisturbed and is denoted in the figures as normal.
One week after maternal separation mice were separated into two groups. […]
Contextual fear conditioning was used to determine the effects of the ellagitannin punicalagin on the susceptibility of adult animals, subjected to early life stress, to anxiety. […] Animal behavior was monitored every 2 seconds throughout the duration of the experiment. The period that mice spent immobile in the chamber was considered as “freezing” and was scored throughout these periods. The time the mice spent immobile after the first shock was recorded for a 60 second period and expressed as a percentage. […]

[2] = test system: maternally separated mice; experiment: Rotarod motor learning in early-life stress mice; conditions: early-life stressed mice, 90 mg/kg/day (FIG. 44)
Procedure: as §1
(§2) One week after maternal separation mice were separated into two groups. One control group received the standard mouse chow diet (Untreated), while the other group received the ellagitannin punicalagin admixed into the food and designed to deliver a dose of 90 mg/kg/day to the mice. Treatment with the diet began 1 week after the termination of the maternal separation treatment. […]
To measure the effects of pomegranate-derived compounds on the negative cognitive impacts of maternal separation, effects on motor learning were assayed using the rotarod behavioral assay. […] The latency to fall was measured with a cutoff time of 300 sec. […]

[3] = test system: maternally separated mice; experiment: Morris water maze in early-life stress mice; conditions: early-life stressed mice, 90 mg/kg/day (FIG. 45)
Procedure: as §1, §2
The Morris water maze behavioral assay was employed to assess the cognitive impact of maternal separation. In this assay, cognitive learning is measured by the ability of a mouse to locate a hidden platform in a pool of opaque water. […] Escape latency to reach the platform was measured by a video tracking system.

[4] = test system: aged C. elegans (wild-type Bristol N2); experiment: Oxygen consumption (Seahorse XF24) in aged C. elegans; conditions: 10-day-old worms, 30 μM urolithin A in 0.1% DMSO, 30 minute period (FIGS. 25A, 25B)
Procedure: C. elegans strains were cultured at 20° C. on nematode growth media (NGM) agar plates seeded with E. coli strain OP50. Strain used was wild-type Bristol N2 provided by the Caenorhabditis Genetics Center (University of Minnesota). Urolithin A was dissolved in DMSO. Animals were exposed to compounds from eggs on plates seeded with live OP50 bacteria. Control plates were prepared with the corresponding concentration of DMSO (0.1%).
Measurement of oxygen consumption is a direct indicator of mitochondrial activity. The effect of urolithin A on mitochondrial activity in aged C. elegans (10 days old) was assessed by treating C. elegans with urolithin A for 10 days of adulthood, at which time oxygen consumption was measured using the Seahorse XF24 equipment (Seahorse Bioscience Inc., North Billerica, Mass.). 250 ten-day-old C. elegans were used per condition. […] Worms were transferred into 24-well standard Seahorse plates (#100777-004) (50 worms per well) and oxygen consumption was measured. The basal oxygen consumption of the worms was first measured over 30 minutes at 5 minute intervals (0 min, 5 min, 15 min, 20 min, 25 min and 30 min) with 5 replicates per interval. Respiration rates were normalized to the exact number of worms per well determined after the completion of the experiment using a stereomicroscope. […]

| SMILES | freezing time after the first foot shock (anxiety level) ([1]; 90 mg/kg/day in food, 60 second period (FIG. 42)) | extinction of contextual recall (freezing as percent of day 1) ([1]; 90 mg/kg/day, 12 days, reduced freezing between days 8 and 12 (FIG. 43)) | motor learning, latency to fall from rotarod [2] | escape latency in Morris water maze (cognitive learning) [3] | uncoupled (FCCP) respiration, oxygen consumption AUC [4] |
| --- | --- | --- | --- | --- | --- |
| O=C1O[C@H]2[C@@H]3OC(=O)c4cc(O)c(O)c(O)c4-c4c(O)c(O)c5oc(=O)c6c(c(O)c(O)c7oc(=O)c4c5c76)-c4c(cc(O)c(O)c4O)C(=O)OC[C@H]3OC(O)[C@@H]2OC(=O)c2cc(O)c(O)c(O)c2-c2c1cc(O)c(O)c2O (mixture of isomers) [punicalagin, 2,3 hexahydroxydiphenoyl-4,6-gallagylglucose] | decreased and normalized these elevated anxiety levels | faster extinction than untreated early-life stressed mice | restored motor learning skills | reducing the time to learn the location of the hidden platform to levels observed in normal non-stressed mice | – |
| O=c1oc2cc(O)ccc2c2ccc(O)cc12 [urolithin A, 3,8-Dihydroxydibenzo-α-pyrone] | – | – | – | – | significantly increased uncoupled respiration |
